Drawing on ChEMBL document CHEMBL4680219, “Structure-thermodynamics-relationships of hepatitis C viral NS3 protease inhibitors” (Eur J Med Chem, 2020), this text covers Kd and Ki for ten compounds.

Assay [1] can be described thus: Binding affinity to HCV NS3/4a protease by isothermal titration calorimetry. Also on record: species or system Hepacivirus hominis. In general terms: Isothermal titration calorimetry measures the heat released or taken up as one component is titrated into another.
The nature of assay [2]: Inhibition of HCV NS3/4a protease using biotin-DDIVPCSMSY[125I]TW as substrate by radiometric assay. Also noted: species or system Hepacivirus hominis.

SMILES strings stand for the structures.

The term Kd denotes the equilibrium constant for the complex coming apart. A low value points to higher affinity. In turn, `C=CC1C[C@@]1(NC(=O)[C@@H]1C[C@@H](Oc2cc(-c3ccccc3)nc3ccccc23)CN1C(=O)[C@@H](NC(=O)OC(C)(C)C)C(C)(C)C)C(=O)O` (some centres undefined) came in with a Kd in assay [1] of 100 nM. In other words, the sub-micromolar range. The compound `C=CC1C[C@@]1(NC(=O)[C@@H]1C[C@@H](Oc2cc(-c3ccccc3)nc3ccccc23)CN1C(=O)CNC(=O)OC(C)(C)C)C(=O)O` (some centres undefined) displayed a Kd in assay [1] of 77000 nM. Compound `C=CC1C[C@@]1(NC(=O)[C@@H]1C[C@@H](Oc2cc(-c3ccccc3)nc3ccccc23)CN1C(=O)[C@H](C)NC(=O)OC(C)(C)C)C(=O)O` (some centres undefined) had a Kd in assay [1] of 2630 nM. For orientation: Ki means the equilibrium dissociation constant of an inhibitor or competing ligand from its target. High values mean lower affinity, low ones higher affinity. Take `C=CC1C[C@@]1(NC(=O)[C@@H]1C[C@@H](Oc2ccnc3ccccc23)CN1C(=O)[C@@H](NC(=O)OC(C)(C)C)C(C)(C)C)C(=O)O` (some centres undefined): the Ki in assay [2] stood at 140 nM. Besides, the Kd in assay [1] was 190 nM.

Turning to `C=CC1C[C@@]1(NC(=O)[C@@H]1C[C@@H](Oc2cc(-c3ccccc3)nc3cc(OC)ccc23)CN1C(=O)[C@@H](NC(=O)OC(C)(C)C)C(C)(C)C)C(=O)O` (some centres undefined), affinity in assay [2] was put at a Ki of 20 nM. Moreover, the equilibrium dissociation constant (Kd) in assay [1] amounted to 19 nM. Compound `C=CC1C[C@@]1(NC(=O)[C@@H]1C[C@@H](Oc2ccncc2)CN1C(=O)[C@@H](NC(=O)OC(C)(C)C)C(C)(C)C)C(=O)O` (some centres undefined) showed a Ki in assay [2] of 29000 nM. In assay [1], binding was characterised by a dissociation constant (Kd) of 13500 nM.

Consider `C=CC1C[C@@]1(NC(=O)[C@@H]1C[C@@H](Oc2ccnc3cc(OC)ccc23)CN1C(=O)[C@@H](NC(=O)OC(C)(C)C)C(C)(C)C)C(=O)O` (some centres undefined), for which the Ki in assay [2] was 50 nM. In assay [1], binding was put at a Kd of 180 nM.

`C=CC1C[C@@]1(NC(=O)[C@@H]1C[C@@H](Oc2cc(-c3ccccc3)nc3ccccc23)CN1C(=O)[C@H](CC)NC(=O)OC(C)(C)C)C(=O)O` (some centres undefined) registered a Kd in assay [1] of 900 nM. This counts as sub-micromolar. `C=CC1C[C@@]1(NC(=O)[C@@H]1C[C@@H](Oc2ccnc(-c3ccccc3)c2)CN1C(=O)[C@@H](NC(=O)OC(C)(C)C)C(C)(C)C)C(=O)O` (some centres undefined) yielded a Kd in assay [1] of 830 nM. Same read-out and setting: the value for `C=CC1C[C@@]1(NC(=O)[C@@H]1C[C@@H](Oc2cc(-c3ccccc3)nc3ccccc23)CN1C(=O)[C@@H](NC(=O)OC(C)(C)C)C(C)C)C(=O)O` (some centres undefined) was 250 nM.
